Assay results reported in US9207219B1, “Fully automated analytical method for determination of chloroethers in water and urine sample” (priority 2014, dated 2015).
Values after ≈ are worked out from the molar mass of the structure shown.

Experiments:
[1] = cited from earlier work
[2] = Concentration of CEs in human urine determined by fully automated FA-SPME/GC-MS; settings: urine of a volunteer working at water desalination facility; urine diluted 1:1 with ultrapure water before extraction
Protocol: Analyses were performed using a gas chromatograph (Agilent technologies, 7890A GC) coupled with a quadrupole mass selective spectrometer (Agilent technologies, 5975C) equipped with an inert ion source and provided with a split-splitless injection port. An A HP-5 GC fused silica capillary column (Agilent 19091J-413; 30 m×320 μm ID×0.25 μm thickness) was selected to separate the analytes. CTC CombiPAL autosampler (GC sampler 80, Zwingen, Switzerland) was used for the full automated FA-SPME. Ultra high purity helium (99.999%, Abdulah Hashim, Al-Khobar, Saudi Arabia) was used as the carrier gas at a flow rate of 1.3 mL min^−1. The samples were injected in the splitless mode. The temperature program used for the analyses was as follows: the initial temperature was 40° C. held 1 min which was then increased to 118° C. at 10° C. min^−1 and held for 3 min, then to 190 C at 15° C. min^−1 and held for 4 min. The total run time was 18.6 min. The injection port, ion source and interface temperatures were 280° C., 230° C., and 250° C., respectively. For qualitative determinations, the MSD was operated in full-scan mode from m/z 50 to 550 and selective ion monitoring mode was used for the quantification of the analytes. […]
The applicability of the proposed FA-SPME technique for real water and urine sample matrices were evaluated. […]

[3] = cited from earlier work; remark: listed apart in the source

Which “Solubility at 20-25° C.” value [1] does the source give for `ClCCOCOCCCl` [BCEM, Bis(2-chloroethoxy)methane] here?
Its value is 1.3534 mg/mL (≈ 7.82 mM).

And the “Vapor pressure at 20-25° C.” value [1]?
The value was 0.179 mmHg.

What about the “Henry's law constant at 20° C.” value [1] of the same compound?
Its value is 0.001.

And the “Diffusion coefficient in air” value [1]?
The value was 0.058 cm^2 s^−1.

What about the “Diffusion coefficient in water” value [1] of the same compound?
Its value is 7.11E−06 cm^2 s^−1.

And the “concentration in real sample, Human urine” value [2]?
Its value is 0.0115 µg/mL.

What about the “minimum half-life in water” value [3] of the same compound?
The value was no less than 2 years.

With `ClCCOCCCl` [BCEE, Bis(2-chloroethyl)ether] as the compound, how does the “Solubility at 20-25° C.” value [1] read?
The value was 10.2 mg/mL (≈ 71.3 mM).

What about the “Vapor pressure at 20-25° C.” value [1] of the same compound?
Its value is 1.34 mmHg.

What about the “Henry's law constant at 20° C.” value [1] of the same compound?
The value was 0.00089.

What about the “Diffusion coefficient in air” value [1] of the same compound?
Its value is 0.069 cm^2 s^−1.

And the “Diffusion coefficient in water” value [1]?
Its value is 7.53E−06 cm^2 s^−1.

And the “concentration in real sample, Human urine” value [2]?
Its value is 0.0308 µg/mL.
